In the OPERA property sets (Mansouri et al. 2018):

Settings: not given

| SMILES | melting point [°C] | boiling point [°C] | ready biodegradability | log10 vapour pressure (mmHg) | logP | log10 Henry constant (atm·m³/mol) | log10 Koa | log10 Koc (L/kg) |
| --- | --- | --- | --- | --- | --- | --- | --- | --- |
| c1ccc(-c2cccc(-c3ccccn3)n2)nc1 | 90 | – | – | – | – | – | – | – |
| O=[N+]([O-])CCl | – | 122 | – | – | – | – | – | – |
| C=C(C)C(=O)OCCOCCOC(=O)C(=C)C | – | – | readily biodegradable | – | – | – | – | – |
| C=CCCCCCCC(=O)O | 5 | – | – | – | – | – | – | – |
| COc1cccc2c1C(=O)c1c(O)c3c(c(O)c1C2=O)C[C@@](O)(C(=O)CO)C[C@@H]3O[C@H]1C[C@H](N)[C@H](O)[C@H](C)O1 | 230 | – | – | – | – | – | – | – |
| O=S(=O)(Cl)CCCl | – | 202 | – | – | – | – | – | – |
| COc1ccc2c(C(=O)c3ccc(Cl)cc3)c(C)n(CC(=O)O)c2c1 | 242 | – | – | – | – | – | – | – |
| O=C(O)CCC(=O)C(=O)O | 116 | – | – | – | – | – | – | – |
| CCOC(=O)C(CC)(CC)C(=O)OCC | – | 230 | – | – | – | – | – | – |
| C=C1C(=O)OC2[C@H]1CC[C@H](C)[C@@H]1C=CC(=O)[C@@]21C (stereo partly specified) | 146 | – | – | – | – | – | – | – |
| CCCCCCCCN | 0 | 180 | – | -0.0137 | – | – | – | – |
| C[C@@H](O)CC(=O)O | 47.5 | – | – | – | – | – | – | – |
| C=C(CC)C(C)CC (stereo unspecified) | – | 112 | – | – | – | – | – | – |
| Cc1ccc(N)c(C)c1 | -14.3 | 214 | not readily biodegradable | -0.876 | – | – | – | – |
| CC1=C(C)CCC1 | -90.4 | 106 | – | – | – | – | – | – |
| CC=C(C)C(C)C | – | – | – | 1.83 | – | – | – | – |
| CC(=O)N(C)c1ccccc1 | 103 | 256 | not readily biodegradable | – | – | – | – | – |
| Brc1ccc(Oc2ccccc2Br)c(Br)c1 | – | – | – | – | 5.74 | – | – | – |
| ClC/C=C/CCl | -14.2 | 155 | – | 0.574 | – | – | – | – |
| C[C@@H]1CCCC[C@@H]1C (racemic) | -70 | – | – | – | – | – | – | – |
| N#Cc1cccc(O)c1 | 80 | – | – | – | – | – | – | – |
| CCOc1ccc(C(COCc2cccc(Oc3ccc(Cl)cc3)c2)C(F)(F)F)cc1 (stereo unspecified) | – | – | – | -9.01 | – | – | – | – |

| SMILES | melting point [°C] | boiling point [°C] | ready biodegradability | log10 vapour pressure (mmHg) | logP | log10 Henry constant (atm·m³/mol) | log10 Koa | log10 Koc (L/kg) |
| --- | --- | --- | --- | --- | --- | --- | --- | --- |
| FC(F)F | -155 | -82.1 | – | 4.55 | – | -1.02 | – | – |
| CCCCCOC(=O)c1ccccc1C(=O)OCCCCC | – | 342 | – | – | – | – | – | – |
| COC(=O)c1ccc2c(c1)OCO2 | 53 | – | – | – | – | – | – | – |
| O=C(O)c1cc(O)c(O)c(=O)c(O)c1 | 317 | – | – | – | – | – | – | – |
| Cc1ccc(C#N)cc1 | 29.5 | 217 | – | -0.504 | – | – | – | – |
| CC(C)(CO)CO | 130 | 208 | not readily biodegradable | – | – | – | – | – |
| O=Cc1c(F)c(F)cc(F)c1F | – | 178 | – | – | – | – | – | – |
| OCCSSCCO | 26 | – | – | – | – | – | – | – |
| O=[N+]([O-])C(CO)(CO)CO | 214 | – | readily biodegradable | – | – | – | – | – |
| CC(=O)Oc1ccc(OC(C)=O)cc1 | 124 | – | – | – | – | – | – | – |
| CCOC(=O)[C@H](O)[C@@H](O)C(=O)OCC | 17 | 280 | – | – | – | – | – | – |
| BrC=C(Br)Br | – | 164 | – | – | – | – | – | – |
| Cc1ccc(C)nc1 | -16 | 157 | – | 0.526 | – | -5.06 | – | – |
| CC[N+](CC)(CCOc1ccc(C(C)(C)CC(C)(C)C)cc1)Cc1ccccc1.[Cl-] | 113 | – | – | – | – | – | – | – |
| CCCCCCCCCCOC(C)=O | -15 | 244 | – | – | – | – | – | – |
| N#CCN(CC#N)CC#N | 126 | – | – | -6.5 | – | – | – | – |
| C=CC(=C)C | -146 | 34 | not readily biodegradable | 2.74 | – | – | 2.06 | – |
| C[C@]12COC(=O)C[C@@H]1CC[C@@H]1[C@@H]2CC[C@@]2(C)[C@H]1CC[C@]2(C)O | 236 | – | – | – | – | – | – | – |
| CCCCCCCCCCl | -39.4 | 204 | – | -0.574 | – | – | – | – |
| CC(=O)Oc1cc(C(C)C)ccc1C | – | 246 | – | – | – | – | – | – |
| O=c1cc[nH]c2cc(C(F)(F)F)ccc12 | 268 | – | – | – | – | – | – | – |
| OC[C@H]1O[C@H]1c1ccccc1 | 26.5 | – | – | – | – | – | – | – |

| SMILES | melting point [°C] | boiling point [°C] | ready biodegradability | log10 vapour pressure (mmHg) | logP | log10 Henry constant (atm·m³/mol) | log10 Koa | log10 Koc (L/kg) |
| --- | --- | --- | --- | --- | --- | --- | --- | --- |
| OCCNC(=S)C(=S)NCCO | 93.3 | – | – | – | – | – | – | – |
| CCCCCC(=O)O[C@]1(C(C)=O)CC[C@H]2[C@@H]3CCC4=CC(=O)CC[C@@H]4[C@H]3CC[C@@]21C | 124 | – | – | – | – | – | – | – |
| Cc1ccc(O)c([N+](=O)[O-])c1 | 36.5 | – | not readily biodegradable | – | – | -4.83 | – | – |
| Cc1ccc2ccc3ccccc3c2c1 | 65 | 350 | – | – | – | – | – | – |
| Cc1cc(Cl)c(Cl)cc1Cl | 82.4 | 231 | – | – | – | -2.82 | – | – |
| O=CC=Cc1ccccc1 | -7.5 | 246 | – | -1.54 | – | – | – | – |
| N#CCc1ccc([N+](=O)[O-])cc1 | 117 | – | – | – | – | – | – | – |
| CCOC(=O)CCC(C)CC (stereo unspecified) | – | 180 | – | – | – | – | – | – |
| CCN(CC)C(=O)Nc1ccc(OCC(O)CNC(C)(C)C)c(C(C)=O)c1 (stereo unspecified) | 111 | – | – | – | – | – | – | – |
| O=C(O)CS | -16.5 | – | readily biodegradable | -1.06 | – | – | – | – |
| CCCCCCCCCc1ccc(O)cc1 | 42 | – | – | -3.09 | – | – | – | 3.84 |
| CCOC(=O)[C@@H](N)CS.Cl | 124 | – | – | – | – | – | – | – |
| OC[C@@H](O)[C@@H](O)[C@H](O)[C@@H](O)CO | – | – | readily biodegradable | – | – | – | – | – |
| CNC(=O)COc1ccccc1OCC(O)CNC(C)(C)C (stereo unspecified) | 96.5 | – | – | – | – | – | – | – |
| O=C1c2ccccc2C(=O)C1c1ccc(F)cc1 | 120 | – | – | – | – | – | – | – |
| ON=Cc1ccc(F)cc1 | 83.5 | – | – | – | – | – | – | – |
| CCOC(=O)NCc1ccccc1 | 49 | 230 | – | – | – | – | – | – |
| Clc1ccc(-c2c(Cl)cc(Cl)c(Cl)c2Cl)cc1Cl | 107 | – | – | – | – | – | – | – |
| CN(C)P(=O)(OP(=O)(N(C)C)N(C)C)N(C)C | 17 | – | – | -3 | – | – | – | – |
| Cc1ccccc1S(N)(=O)=O | – | – | not readily biodegradable | – | – | – | – | – |
| CC(=O)Nc1ccc(Cl)cc1 | 179 | 333 | – | – | – | – | – | – |
| CON(C)C(=O)Nc1ccc(Cl)cc1 | 81.5 | – | – | -3.82 | – | – | – | 2.1 |

| SMILES | melting point [°C] | boiling point [°C] | ready biodegradability | log10 vapour pressure (mmHg) | logP | log10 Henry constant (atm·m³/mol) | log10 Koa | log10 Koc (L/kg) |
| --- | --- | --- | --- | --- | --- | --- | --- | --- |
| Cc1ccc(C(=O)C(C)CN2CCCCC2)cc1 (stereo unspecified) | 176 | – | – | – | – | – | – | – |
| CCCC[Si]1(C)O[Si](C)(CCCC)O[Si](C)(CCCC)O[Si](C)(CCCC)O1 (stereo unspecified) | – | 291 | – | – | – | – | – | – |
| CCOC(C)=O | -83.6 | 77.1 | readily biodegradable | 1.97 | – | -3.87 | 2.7 | – |
| CC(C)NCCCC1(C(N)=O)c2ccccc2-c2ccccc21 | 94.5 | – | – | – | – | – | – | – |
| CN=C=S | 36 | 119 | not readily biodegradable | 0.549 | – | – | – | 0.97 |
| CCCCCCO[N+](=O)[O-] | – | 171 | – | 0.199 | – | -2.83 | – | – |
| CC(C)CCCCO | – | 170 | – | – | – | – | – | – |
| CCC(C(C)=O)C(C)=O | – | 178 | – | – | – | – | – | – |
| c1ccc(-c2nc3ccccc3o2)cc1 | 103 | – | – | – | – | – | – | – |
| CCCOC=O | -92.9 | 80.9 | – | 1.92 | – | – | 2.66 | – |
| O=C(O)C=Cc1ccc(O)cc1 | – | – | readily biodegradable | – | – | – | – | – |
| CC(=O)c1ccc(C(C)C)cc1 | – | 254 | – | – | – | – | – | – |
| Clc1cc(Cl)c(Cl)c(-c2c(Cl)c(Cl)cc(Cl)c2Cl)c1Cl | – | – | – | – | – | -4.74 | – | 6.36 |
| O=C(Cl)CCl | -22 | 106 | – | 1.4 | – | – | – | – |
| CCOC(=O)NC | – | 170 | – | -0.0435 | – | – | – | – |
| Cc1ccc(CC#N)cc1 | 18 | 242 | – | – | – | – | – | – |
| CCSc1ccccc1 | – | 205 | – | – | – | – | – | – |
| CCCC(=NOCC)C1=C(O)CC(C2CCCSC2)CC1=O (stereo unspecified) | 41 | – | – | -7.12 | – | – | – | – |
| O=C(O)[C@H](O)[C@@H](O)[C@H](O)[C@H](O)CO | 131 | – | – | – | – | – | – | – |
| CC1CCC(O)CC1C (stereo unspecified) | – | 189 | – | – | – | – | – | – |
| FC(F)(F)C1(F)C(F)(F)C(F)(F)C(F)(F)C(F)(F)C1(F)F | -44.7 | 76.3 | – | 2.02 | – | – | – | – |
| C=C(C)CC(C)O (stereo unspecified) | – | 129 | – | – | – | – | – | – |

Same assay, conditions: fish

| SMILES | log10 BCF | log10 biotransformation half-life (days) |
| --- | --- | --- |
| CC(=O)N(C)c1ccccc1 | 0.18 | -1.12 |
| CC(C)(CO)CO | 0.67 | – |
| C=CC(=C)C | 1.3 | -0.61 |
| Cc1ccc(O)c([N+](=O)[O-])c1 | 0.95 | – |
| Cc1cc(Cl)c(Cl)cc1Cl | 3.87 | 2.01 |
| CCCCCCCCCc1ccc(O)cc1 | 2.58 | -0.23 |
| Clc1ccc(-c2c(Cl)cc(Cl)c(Cl)c2Cl)cc1Cl | – | 2.57 |
| Cc1ccccc1S(N)(=O)=O | 0.41 | -0.89 |
| CON(C)C(=O)Nc1ccc(Cl)cc1 | 1.15 | – |
| Clc1cc(Cl)c(Cl)c(-c2c(Cl)c(Cl)cc(Cl)c2Cl)c1Cl | 5.82 | – |
